Test results from ChEMBL document CHEMBL1142639, “New triterpenoid saponins from the sponge Melophlus isis” (2000).
≈ marks a conversion by molar mass, not a printed value. Calls of active or inactive are those of the source. No cut-off for these calls is given here.

What was measured:
[1] = system: Photobacterium phosphoreum; test: Antibacterial activity against Photobacterium phosphoreum at 100 ug/mL by paper disk method; type: functional, organism-based
K562 = test: Cytotoxicity against human K562 cells; type: functional; conditions: read-out: LC50 (the source's name)
[2] = system: Photobacterium leiognathi; test: Antibacterial activity against Photobacterium leiognathi at 100 ug/mL by paper disk method; type: functional, organism-based
Vibrio harveyi = test: Antibacterial activity against Vibrio harveyi at 100 ug/mL by paper disk method; type: functional, organism-based

Structure (SMILES)	Activity [1]	CC50 (K562)	A ctivity [2]	Activity (Vibrio harveyi)	Activity [2]
CC(=O)N[C@H]1[C@H](O[C@@H]2CO[C@@H](O[C@H]3CC[C@@]4(C)[C@@H](CCC5=C6[C@@H](O)C[C@H]([C@H](C)CC(=O)C=C(C)C)[C@@]6(C)CC[C@@]54O)C3(C)C)[C@H](O[C@@H]3O[C@H](CO[C@@H]4O[C@H](CO)[C@@H](O)[C@H](O)[C@H]4O[C@@H]4O[C@H](CO)[C@@H](O)[C@H](O)[C@H]4O)[C@@H](O)[C@H](O)[C@H]3NC(C)=O)[C@H]2O)O[C@H](CO)[C@H](O)[C@@H]1O [SARASINOSIDE I1]	inactive	> 100 µg/mL	inactive	inactive	
CC(=O)N[C@H]1[C@H](O[C@@H]2CO[C@@H](O[C@H]3CC[C@@]4(C)[C@@H](CCC5=C6[C@H](O)C[C@H]([C@H](C)CC(=O)C=C(C)C)[C@@]6(C)CC[C@@]54O)C3(C)C)[C@H](O[C@@H]3O[C@H](CO[C@@H]4O[C@H](CO)[C@@H](O)[C@H](O)[C@H]4O[C@@H]4O[C@H](CO)[C@@H](O)[C@H](O)[C@H]4O)[C@@H](O)[C@H](O)[C@H]3NC(C)=O)[C@H]2O)O[C@H](CO)[C@H](O)[C@@H]1O [SARASINOSIDE H1]	inactive	> 100 µg/mL		inactive	inactive
CO[C@@H]1C[C@H]([C@H](C)CC(=O)C=C(C)C)[C@@]2(C)CC[C@@]3(O)C(=C12)CC[C@H]1C(C)(C)[C@@H](O[C@@H]2OC[C@@H](O[C@@H]4O[C@H](CO)[C@H](O)[C@H](O)[C@H]4NC(C)=O)[C@H](O)[C@H]2O[C@@H]2O[C@H](CO[C@@H]4O[C@H](CO)[C@@H](O)[C@H](O)[C@H]4O[C@@H]4O[C@H](CO)[C@@H](O)[C@H](O)[C@H]4O)[C@@H](O)[C@H](O)[C@H]2NC(C)=O)CC[C@@]13C [SARASINOSIDE H2]	inactive	> 100 µg/mL		inactive	inactive
CC(=O)N[C@H]1[C@H](O[C@@H]2CO[C@@H](O[C@H]3CC[C@]4(C)C5=C(CC[C@H]4C3(C)C)[C@@H]3CC[C@H]([C@H](C)CC(=O)C=C(C)C)[C@@]3(C)CC5)[C@H](O[C@@H]3O[C@H](CO[C@@H]4O[C@H](CO)[C@@H](O)[C@H](O)[C@H]4O[C@@H]4O[C@H](CO)[C@@H](O)[C@H](O)[C@H]4O)[C@@H](O)[C@H](O)[C@H]3NC(C)=O)[C@H]2O)O[C@H](CO)[C@H](O)[C@@H]1O [SARASINOSIDE A1]		6.5 µg/mL (≈ 5.04 µM)			
CC(=O)N[C@H]1[C@H](O[C@@H]2CO[C@@H](O[C@H]3CC[C@]4(C)C5=C(CC[C@H]4C3(C)C)C3=CC[C@H]([C@H](C)CC(=O)C=C(C)C)[C@@]3(C)CC5)[C@H](O[C@@H]3O[C@H](CO[C@@H]4O[C@H](CO)[C@@H](O)[C@H](O)[C@H]4O[C@@H]4O[C@H](CO)[C@@H](O)[C@H](O)[C@H]4O)[C@@H](O)[C@H](O)[C@H]3NC(C)=O)[C@H]2O)O[C@H](CO)[C@H](O)[C@@H]1O [SARASINOSIDE A3]		17.1 µg/mL (≈ 13.3 µM)			
CO[C@H]1C[C@H]([C@H](C)CC(=O)C=C(C)C)[C@@]2(C)CC[C@@]3(O)C(=C12)CC[C@H]1C(C)(C)[C@@H](O[C@@H]2OC[C@@H](O[C@@H]4O[C@H](CO)[C@H](O)[C@H](O)[C@H]4NC(C)=O)[C@H](O)[C@H]2O[C@@H]2O[C@H](CO[C@@H]4O[C@H](CO)[C@@H](O)[C@H](O)[C@H]4O[C@@H]4O[C@H](CO)[C@@H](O)[C@H](O)[C@H]4O)[C@@H](O)[C@H](O)[C@H]2NC(C)=O)CC[C@@]13C [SARASINOSIDE I2]	inactive	> 100 µg/mL		inactive	inactive
